Data from ChEMBL document CHEMBL3994568 (2016).
In brackets after ≈: the same amount, converted by molar mass. Activity calls are given as the source filed them. The rule behind the calls is not given here.

Legend:
Bos taurus [1] = organism: Bos taurus; test: Induction of calf thymus DNA intercalation assessed as compound-DNA complex formation at 5 x 10^-5mol/L by fluorescence spectroscopic method
Staphylococcus aureus [2] = test: Antibacterial activity against Staphylococcus aureus ATCC 25923 after 24 hrs by two-fold microbroth dilution method; assay type: functional; settings: ATCC 25923, 24 h
Bos taurus [3] = organism: Bos taurus; test: Binding affinity to calf thymus DNA assessed as hypochromic effect by UV-vis absorption spectra analysis
Bos taurus [4] = organism: Bos taurus; test: Binding affinity to calf thymus DNA by UV-vis absorption spectra analysis
Staphylococcus aureus [5] = test: Potency index, ratio of norfloxacin MIC to compound MIC for methicillin-resistant Staphylococcus aureus N315; assay type: functional
Staphylococcus aureus [6] = test: Potency index, ratio of chloromycin MIC to compound MIC for methicillin-resistant Staphylococcus aureus N315; assay type: functional
HEp-2 = test: Cytotoxicity against human Hep2 cells assessed as cell viability up to 125 ug/ml after 24 hrs by CCK8 assay relative to control; assay type: functional
Candida albicans = test: Antifungal activity against Candida albicans ATCC 10231 after 24 hrs by two-fold microbroth dilution method; assay type: functional; settings: ATCC 10231, 24 h
Pichia norvegensis = test: Antifungal activity against Candida mycoderma ATCC 9888 after 24 hrs by two-fold microbroth dilution method; assay type: functional; settings: ATCC 9888, 24 h
Staphylococcus aureus [7] = test: Antibacterial activity against methicillin-resistant Staphylococcus aureus N315 after 24 hrs by two-fold microbroth dilution method; assay type: functional; settings: N315, 24 h
Bos taurus [8] = organism: Bos taurus; test: Induction of calf thymus DNA intercalation assessed as inhibition of neutral red binding to DNA by UV-vis absorption spectra analysis
Escherichia coli = test: Antibacterial activity against Escherichia coli JM109 after 24 hrs by two-fold microbroth dilution method; assay type: functional; settings: JM109, 24 h
Cyberlindnera jadinii = test: Antifungal activity against Candida utilis ATCC 9950 after 24 hrs by two-fold microbroth dilution method; assay type: functional; settings: Williopsis jadinii, ATCC 9950, 24 h
Bacillus spizizenii = test: Antibacterial activity against Bacillus subtilis ATCC 6633 after 24 hrs by two-fold microbroth dilution method; assay type: functional; settings: ATCC 6633, 24 h
[9] = Antibacterial activity against Eberthella typhosa ATCC 14028 after 24 hrs by two-fold microbroth dilution method; assay type: functional; settings: ATCC 14028, 24 h
Micrococcus luteus = test: Antibacterial activity against Micrococcus luteus ATCC 4698 after 24 hrs by two-fold microbroth dilution method; assay type: functional; settings: NCTC 2665, 24 h
Aspergillus flavus = test: Antifungal activity against Aspergillus flavus ATCC 204304 after 24 hrs by two-fold microbroth dilution method; assay type: functional; settings: ATCC 204304, 24 h
Saccharomyces cerevisiae = test: Antifungal activity against Saccharomyces cerevisiae ATCC 9763 after 24 hrs by two-fold microbroth dilution method; assay type: functional; settings: ATCC 9763, 24 h
Pseudomonas aeruginosa = test: Antibacterial activity against Pseudomonas aeruginosa ATCC 27853 after 24 hrs by two-fold microbroth dilution method; assay type: functional; settings: ATCC 27853, 24 h
Bacillus = test: Antibacterial activity against Bacillus proteus ATCC 13315 after 24 hrs by two-fold microbroth dilution method; assay type: functional; settings: ATCC 13315, 24 h

Compound: CCCCCCCn1c2ccc(-c3csc(N)n3)cc2c2cc(-c3csc(N)n3)ccc21
- Activity (Bos taurus [1]): Active
- MIC (Staphylococcus aureus [2]): 16 µg/mL (≈ 34.7 µM)
- Activity (Bos taurus [3]): Dose-dependent effect
- K (Bos taurus [4]): 2.71 ×10⁴ L/mol
- Ratio (Staphylococcus aureus [5]): 2
- Ratio (Staphylococcus aureus [6]): 16
- Activity (HEp-2): 85%
- MIC (Candida albicans): 128 µg/mL (≈ 277 µM)
- MIC (Pichia norvegensis): 64 µg/mL (≈ 139 µM)
- MIC (Staphylococcus aureus [7]): 4 µg/mL (≈ 8.66 µM)
- inhibition (Bos taurus [8]): Dose-dependent effect
- MIC (Escherichia coli): 128 µg/mL (≈ 277 µM)
- MIC (Cyberlindnera jadinii): 256 µg/mL (≈ 555 µM)
- MIC (Bacillus spizizenii): 256 µg/mL (≈ 555 µM)
- MIC [9]: 128 µg/mL (≈ 277 µM)
- MIC (Micrococcus luteus): 64 µg/mL (≈ 139 µM)
- MIC (Aspergillus flavus): 256 µg/mL (≈ 555 µM)
- MIC (Saccharomyces cerevisiae): 128 µg/mL (≈ 277 µM)
- MIC (Pseudomonas aeruginosa): 128 µg/mL (≈ 277 µM)
- MIC (Bacillus): 256 µg/mL (≈ 555 µM)
